Earlier results, collected in patent US20050084931A1, “Human prostaglandin DP receptor variants and methods of using same” (priority 2003, published 2005).
Where two headings read alike, the source gives them in different places.

Target: T1, human DP receptor (Homo sapiens, UniProt Q13258)
T1 sequence (Q13258 1-359): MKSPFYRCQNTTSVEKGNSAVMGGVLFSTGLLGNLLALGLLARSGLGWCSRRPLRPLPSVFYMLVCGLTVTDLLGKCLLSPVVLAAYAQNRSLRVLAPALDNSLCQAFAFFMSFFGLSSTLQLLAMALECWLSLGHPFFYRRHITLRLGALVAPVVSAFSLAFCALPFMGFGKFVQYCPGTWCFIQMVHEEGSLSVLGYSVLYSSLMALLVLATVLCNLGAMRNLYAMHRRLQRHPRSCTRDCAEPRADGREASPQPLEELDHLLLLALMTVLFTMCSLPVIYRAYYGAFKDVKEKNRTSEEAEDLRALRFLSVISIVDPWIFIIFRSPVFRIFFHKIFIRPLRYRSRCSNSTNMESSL

For `CCCCC[C@H](O)/C=C/[C@H]1C(=O)C[C@H](O)[C@@H]1C/C=C\CCCC(=O)O` [PGD2, Prostaglandin D2], the Kd (high-affinity site, read-out: high-affinity binding site) is given as 0.3 nM and the Kd (read-out: lower-affinity site) is given as ~13 nM.
